According to patent US20120283228A1, “2alpha-Methyl and 2beta-Methyl Analogs of 19,26-Dinor-1alpha,25-Dihydroxyvitamin D3 and Their Uses” (WISCONSIN ALUMNI RESEARCH FOUNDATION, priority 2011, published 2012):
Entries after “also recorded” stand apart in the source; their conditions may differ.

Columns and labels:
[1] = system: Human promyelocytic leukemia (HL60) cells; experiment: HL-60 differentiation (nitro blue tetrazolium reduction); format: cell-based; settings: for EC50: HL-60 cells, read-out: EC50, ability to promote HL-60 cell differentiation
Description: Serial dilutions were prepared so that a range of drug concentrations could be tested without changing the final concentration of ethanol (≦0.2%) present in the cell cultures.
Human promyelocytic leukemia (HL60) cells were grown in RPMI-1640 medium containing 10% fetal bovine serus. The cells were incubated at 37° C. in the presence of 5% CO2.
HL60 cells were plated at 1.2×10^5 cells/ml. Eighteen hours after plating, cells in duplicate were treated with drug. Four days later, the cells were harvested and a nitro blue tetrazolium reduction assay was performed (Collins et al., 1979; J. Ex. Med. 149:969-974). The percentage of differentiated cells was determined by counting a total of 200 cells and recording the number that contained intracellular black-blue formazan deposits Verification of differentiation to monocytic cells was determined by measuring phagocytic activity (data not shown).

[2] = system: 24-hydroxylase (24Ohase) gene promoter; experiment: In vitro transcription assay in ROS 17/2.8 (bone) cells, luciferase reporter; format: cell-based
Description: Transcription activity was measured in ROS 17/2.8 (bone) cells that were stably transfected with a 24-hydroxylase (24Ohase) gene promoter upstream of a luciferase reporter gene (Arbour et al., 1998). Cells were given a range of doses. Sixteen hours after dosing the cells were harvested and luciferase activities were measured using a luminometer.
RLU=relative luciferase units.

vitamin D-deficient rats [3] = experiment: Bone calcium mobilization (serum calcium); format: in vivo, Sprague-Dawley rats; settings: rats on low calcium diet (0.02%); for mobilization of bone calcium at 7,020 pmol/day: 7,020 pmol/day for 4 consecutive days; for activity in mobilizing calcium from bone / serum calcium levels: all dosages tested; for times less potent than 1,25(OH)2D3 in bone (bone calcium mobilization): 4 ip doses
Description: (§1) Male, weanling Sprague-Dawley rats were placed on Diet 11 (0.47% Ca) diet +AEK for one week followed by Diet 11 (0.02% Ca) +AEK for 3 weeks. The rats were then switched to a diet containing 0.47% Ca for one week followed by two, weeks on a diet containing 0.02% Ca. Dose administration began during the last week on 0.02% calcium diet. Four consecutive ip doses were given approximately 24 hours apart. Twenty-four hours after the last dose, blood was collected from the severed neck and the concentration of serum calcium determined as a measure of bone calcium mobilization. The first 10 cm of the intestine was also collected for intestinal calcium transport analysis using the everted gut sac method.

vitamin D-deficient rats [4] = experiment: Intestinal calcium transport (everted gut sac method); format: in vivo, Sprague-Dawley rats
Description: as §1

[5] = target: T1, full-length recombinant rat vitamin D receptor (Rattus norvegicus, UniProt P13053)
T1 sequence (P13053 1-423): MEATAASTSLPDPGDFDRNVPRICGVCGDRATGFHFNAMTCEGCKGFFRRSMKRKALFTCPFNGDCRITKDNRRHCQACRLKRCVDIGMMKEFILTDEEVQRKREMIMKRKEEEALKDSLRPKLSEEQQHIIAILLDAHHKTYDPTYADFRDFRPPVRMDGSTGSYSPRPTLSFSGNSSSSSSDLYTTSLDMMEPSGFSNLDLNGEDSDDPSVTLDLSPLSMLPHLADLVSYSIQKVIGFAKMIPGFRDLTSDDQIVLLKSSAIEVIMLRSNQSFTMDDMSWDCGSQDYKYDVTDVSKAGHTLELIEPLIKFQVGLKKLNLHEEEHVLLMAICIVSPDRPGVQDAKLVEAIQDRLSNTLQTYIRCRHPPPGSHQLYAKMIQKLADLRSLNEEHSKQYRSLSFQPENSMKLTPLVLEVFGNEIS
Description: (§2) Full-length recombinant rat receptor was expressed in E. coli BL21 (DE3) Codon Plus RIL cells and purified to homogeneity using two different column chromatography systems. The first system was a nickel affinity resin that utilizes the C-terminal histidine tag on this protein. The protein that was eluted from this resin was further purified using ion exchange chromatography (S-Sepharose Fast Flow). Aliquots of the purified protein were quick frozen in liquid nitrogen and stored at −80° C. until use. For use in binding assays, the protein was diluted in TEDK50 (50 mM Tris, 1.5 mM EDTA, pH 7.4, 5 mM DTT, 150 mM KCl) with 0.1% Chaps detergent. The receptor protein and ligand concentration was optimized such that no more than 20% of the added radiolabeled ligand as bound to the receptor.
(§3) Radiolabeled and unlabeled ligands were added to 100 mcl of the diluted protein at a final ethanol concentration of ≦10%; mixed and incubated overnight on ice to reach binding equilibrium. The following day, 100 mcl of hydroxylapaptite slurry (50%) was added to each tube and mixed at 10-minute intervals for 30 minutes. The hydroxylapaptite was collected by centrifugation and then washed three times with Tris-EDTA buffer (50 mM Tris, 1.5 mM EDTA, pH 7.4) containing 0.5% Titron X-100. After the final wash, the pellets were transferred to scintillation vials containing 4 ml of Biosafe II scintillation cocktail, mixed and placed in a scintillation counter. Total binding was determined from the tubes containing only radiolabeled ligand.

[6] = target: T1, full-length recombinant rat vitamin D receptor; experiment: biochemical; settings: ability to compete with [3H]-1,25(OH)2D3 for binding to the vitamin D receptor, full-length recombinant rat VDR
Description: as §2, §3

[7] = compared with 1,25(OH)2D3 at 780 pmol/day
[8] = rats on low calcium diet (0.02%), 4 ip doses

SMILES	EC50 [1] [nM]	times more potent than 1,25(OH)2D3 on HL-60 differentiation [1] [times]	times more transcriptional activity than 1α,25-dihydroxyvitamin D3 in bone cells ([2]; more than 1,25(OH)2D3) [times]	mobilization of bone calcium at 7,020 pmol/day (vitamin D-deficient rats [3])	mobilization of bone calcium at 21,060 pmol/day (vitamin D-deficient rats [3]; 21,060 pmol/day for 4 consecutive days)	activity in mobilizing calcium from bone / serum calcium levels (vitamin D-deficient rats [3])	times less potent than 1,25(OH)2D3 in bone (bone calcium mobilization) (vitamin D-deficient rats [3])	intestinal calcium transport at 7,020 pmol/day (vitamin D-deficient rats [4]; [7])	logs less potent than 1,25(OH)2D3 in the intestine (vitamin D-deficient rats [4]; [8])	times less potent than 1,25(OH)2D3 in stimulating calcium transport in the gut (vitamin D-deficient rats [4]; [8])	binding to the receptor as compared to 1,25(OH)2D3 [5]	Ki [6] [nM]	HL-60 differentiation potency as compared to 1,25(OH)2D3 [1]	transcriptional activity in bone cells as compared to 1α,25-dihydroxyvitamin D3 [2]	EC50 ([2]; ROS 17/2.8 cells, 24-hydroxylase promoter-luciferase, read-out: EC50, transcriptional activity in bone cells) [nM]	logs less transcriptional activity than 1α,25-dihydroxyvitamin D3 in bone cells ([2]; less than 1,25(OH)2D3)	mobilization of bone calcium at 35,100 pmol/day (vitamin D-deficient rats [3]; 35,100 pmol/day for 4 consecutive days)	intestinal calcium transport at 35,100 pmol/day (vitamin D-deficient rats [4]; 35,100 pmol/day, compared with 1,25(OH)2D3 at 780 pmol/day)
CC(O)CCCC(C)C1CCC2C(=CC=C3CC(O)C(C)C(O)C3)CCCC21C (single isomer, unassigned) [LR-2]	0.1	10	10	did not result in mobilization of bone calcium	without any substantial effect	little, if any, activity	more than 30 times	some intestinal calcium transport activity, but still not to the same extent as 1,25(OH)2D3	approximately one and one	about 10 times	bound equally well; also recorded: equivalent	0.08	–	–	–	–	–	–
CC(O)CCCC(C)C1CCC2C(=CC=C3CC(O)C(C)C(O)C3)CCCC21C (single isomer, unassigned) [NC-2]	5	4	–	did not result, in mobilization of bone calcium	–	little, if any, activity	more than 50 times	some intestinal calcium transport activity, but still not to the same extent as 1,25(OH)2D3	approximately 5 log	–	bound equally well; also recorded: equivalent	0.2	little difference	slightly less transcriptional activity	0.6	about one-half	without any substantial effect	some intestinal calcium transport activity, but still not to the same extent as 1,25(OH)2D3
